Earlier results on 22 molecules are cited in article PMC6673652 (Nature protocols, 2018).

Setting [1] is: Cy5.5-labeled peptide, 5 μM, 3 hrs, previously tested.

Like-named read-outs stand apart in the source and are kept apart here.

For the molecule ZPPRPPRPPRPPRPPR [(PPR)5], the BBB organoid permeability entry with BBB organoids is “High”.

With ZRKKRRQRRR [HIV-1 Tat], the “BBB penetration in vivo” value is “Yes [31]”. Further, the BBB organoid permeability result in the series on BBB organoids (setting [1]) is reported as “High”.

On to TFFYGGSRGKRNNFKTEEY [Angiopep-2], for which the BBB organoid permeability entry with BBB organoids is listed as “High”. Where the note is “in vivo”, the “BBB crossing as known from literature” value was “known to cross the BBB via receptor mediated transcytosis” and the “BBB penetration in vivo” value was “Yes[6],[29]”.

With ZLRRERQSRLRRERQSR [DPV15], the BBB organoid permeability result in the series with BBB organoids is given as “Very high”. Besides, the “BBB penetration in vivo” value (in vivo) is “Yes [6]”.

On to ZAGYLLGKINLKALAALAKKIL [Transportan 10], for which the BBB organoid permeability entry in the series with BBB organoids (setting [1]) is listed as “High”.

Take ZSQIKIWFQNKRAKIKK [Engrailed-2]: the BBB organoid permeability entry in the series with BBB organoids is on record as “Very high”.

For the molecule ZHARIKPTFRRLKWKYKGKFW [L-2], the BBB organoid permeability entry in the series with BBB organoids is reported as “High”.

`Nc1cc(C(F)(F)F)c(-c2cc(N3CCOCC3)nc(N3CCOCC3)n2)cn1` [BKM120]: the “BBB crossing as known from literature” value is given as “known to cross the BBB”.

With ZRQIKIWFQNRRMKWKK [Penetratin], the BBB organoid permeability result in the series with BBB organoids is listed as “High”. The “BBB penetration in vivo” value (in vivo) is “Yes [31]”.

For the molecule ZKGTYKKKLMRIPLKGT [SVM3], the BBB organoid permeability result with BBB organoids is “High”.

Take `CC(C)(C)c1nc(-c2cccc(NS(=O)(=O)c3c(F)cccc3F)c2F)c(-c2ccnc(N)n2)s1` [Dabrafenib]: the “BBB penetration as known from literature” value is “limited BBB penetration”.

In the case of ZPLSSIFSRIGDP [PreS2-TLM], the BBB organoid permeability entry in the series with BBB organoids (setting [1]) is “High”.

ZLYKKGPAKKGRPPLRGWFH [SVM4]: the BBB organoid permeability entry with BBB organoids was “High”.

With ZRRRRRRRR [Polyarginine], the BBB organoid permeability entry with BBB organoids was “High”.

For ZRQVTIWFQNRRVKEKK [HoxA-13], the BBB organoid permeability result in the series with BBB organoids was “Very high”. Besides, the “BBB penetration in vivo” value (in vivo) was “Yes [6]”.

Regarding ZVRLPPPVRLPPPVRLPPP [SAP], in the series on BBB organoids, the BBB organoid permeability result was “High”.

Turning to ZVELPPPVELPPPVELPPP [SAP(E)], the BBB organoid permeability entry with BBB organoids is recorded as “High”.

With ZRGGRLSYSRRRFSTSTGR [SynB1], the “BBB penetration in vivo” value (in vivo) is “Yes [31]”.

As to ZVSALK [Bip(2)], the BBB organoid permeability entry with BBB organoids was “Very high”. Where the note is “in vivo”, the “BBB penetration in vivo” value was “Yes [6]”.

For the molecule ZVPALR [Bip(1)], the BBB organoid permeability result in the series with BBB organoids was “Very high”. Besides, the “BBB penetration in vivo” value (in vivo) was “Yes [6]”.

For the molecule ZVKRGLKLRHVRPRVTRMDV [DPV1047], the BBB organoid permeability result in the series with BBB organoids is “High”.

For the molecule ZPPRPPRPPR [(PPR)3], in the series on BBB organoids, the BBB organoid permeability result is given as “High”.
